Measured values reported in patent US11236129B2, “IL-17A binding peptides and medical uses thereof” (Dompe' Farmaceutici S.P.A., priority 2018, dated 2022).
Residues, ends and D or L forms follow the SMILES beside them.

Target: IL-17RA/IL17RC dimerization induced by IL-17A (Homo sapiens, UniProt Q16552)
Assay: IL-17RA/IL17RC dimerization assay in response to IL-17A (PathHunter Cytokine Receptor Assay)
Type: cell-based
Conditions: IL-17A at EC80; read-out: IC50 in IL-17RA/IL7RC dimerization assay
Description: The peptides of Table 7 were tested for their ability to inhibit the binding of IL-17A to its receptor and the subsequent interaction of IL-17RA and IL17RC.
Interleukin receptor RA and RC dimerization assay (DiscoverX) was used to measure the interaction of the receptor chains IL-17RA and IL17RC upon activation by IL-17A in the absence or presence of the peptides of Table 7.
In the PathHunter® Cytokine Receptor Assay, one cytokine receptor chain is tagged with a small peptide epitope ProLink (PK) and the other chain is tagged with Enzyme Acceptor (EA). Ligand binding induces dimerization of the two receptors, facilitating complementation of PK and EA fragments. This interaction generates an active unit of b-galactosidase, which is detected using a chemiluminescent substrate. PathHunter cell lines were expanded from freezer stocks according to standard procedures. Cells were seeded in a total volume of 20 μL into white walled, 384-well microplates and incubated for the appropriate time prior to testing. For agonist activity inhibition, cells were incubated with sample to induce response. Intermediate dilution of sample stocks was performed to generate 5× sample in assay buffer. 5 μL of 5× sample was added to cells and incubated at 37° C. or room temperature for 60 minutes. Vehicle concentration was 1%. 5 μL of 6×EC80 agonist (IL-17A) in assay buffer was added to the cells and incubated at 37° C. for 6 to 16 hours depending on the assay. 1. […] For some assays, activity was detected using a high sensitivity detection reagent (PathHunter Flash Kit) to improve assay performance. In these assays, an equal volume of detection reagent (25 or 30 uL) was added to the wells, followed by a one hour incubation at room temperature. Microplates were read following signal generation with a PerkinElmer Envision™ instrument for chemiluminescent signal detection. Compound activity was analyzed using CBIS data analysis suite (ChemInnovation, CA). % Inhibition=100%×(1−(mean RLU of test sample−mean RLU of vehicle control)/(mean RLU of EC80 control−mean RLU of vehicle control)).

Chain of IL-17RA/IL17RC dimerization induced by IL-17A (Q16552 24-155): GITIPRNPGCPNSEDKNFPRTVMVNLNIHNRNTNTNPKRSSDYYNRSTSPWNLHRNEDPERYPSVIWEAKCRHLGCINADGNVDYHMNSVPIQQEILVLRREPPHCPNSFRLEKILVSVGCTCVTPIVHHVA

| Compound | IC50 |
| --- | --- |
| CC[C@H](C)[C@H](NC(C)=O)C(=O)N[C@@H](Cc1c[nH]cn1)C(=O)N[C@@H](Cc1ccccc1)C(=O)N[C@H](C(=O)N[C@H](C(=O)N1CCC[C@H]1C(=O)N[C@@H](C)C(=O)N[C@@H](CC(=O)O)C(=O)N[C@@H](CC(C)C)C(=O)N[C@@H](Cc1c[nH]c2ccccc12)C(=O)N[C@@H](CC(=O)O)C(=O)N[C@@H](Cc1c[nH]c2ccccc12)C(=O)N[C@H](C(=O)N[C@@H](CC(N)=O)C(=O)N[C@@H](CCCCN)C(N)=O)[C@@H](C)CC)[C@@H](C)CC)[C@@H](C)O [SEQ ID NO: 174] (Ac-IHFTIPADLWDWINK-NH2) | < 10 µM |
| CC[C@H](C)[C@H](NC(C)=O)C(=O)N[C@@H](Cc1c[nH]cn1)C(=O)N[C@H](C(=O)N[C@H](C(=O)N[C@H](C(=O)N1CCC[C@H]1C(=O)N[C@@H](C)C(=O)N[C@@H](CC(=O)O)C(=O)N[C@@H](CC(C)C)C(=O)N[C@@H](Cc1c[nH]c2ccccc12)C(=O)N[C@@H](CC(=O)O)C(=O)N[C@@H](Cc1c[nH]c2ccccc12)C(=O)N[C@H](C(=O)N[C@@H](CCC(N)=O)C(=O)N[C@@H](CCCCN)C(N)=O)[C@@H](C)CC)[C@@H](C)CC)[C@@H](C)O)C(C)C [SEQ ID NO: 220] (Ac-IHVTIPADLWDWIQK-NH2) | < 10 µM |
| CC[C@H](C)[C@H](NC(C)=O)C(=O)N[C@@H](Cc1c[nH]cn1)C(=O)N[C@H](C(=O)N[C@H](C(=O)N[C@H](C(=O)N1CCC[C@H]1C(=O)N[C@@H](C)C(=O)N[C@@H](CC(=O)O)C(=O)N[C@@H](CC(C)C)C(=O)N[C@@H](Cc1c[nH]c2ccccc12)C(=O)N[C@@H](CC(=O)O)C(=O)N[C@@H](Cc1c[nH]c2ccccc12)C(=O)N[C@H](C(=O)N[C@@H](CC(N)=O)C(=O)N[C@@H](CCCCN)C(N)=O)[C@@H](C)CC)C(C)C)[C@@H](C)O)C(C)C [SEQ ID NO: 183] (Ac-IHVTVPADLWDWINK-NH2) | < 10 µM |
| CC(=O)N[C@H](C(=O)N[C@@H](Cc1c[nH]cn1)C(=O)N[C@H](C(=O)N[C@@H](CO)C(=O)N[C@H](C(=O)N1CCC[C@H]1C(=O)N[C@@H](CCC(N)=O)C(=O)N[C@@H](CCC(=O)O)C(=O)N[C@@H](CC(C)C)C(=O)N[C@@H](Cc1c[nH]c2ccccc12)C(=O)N[C@@H](CCC(=O)O)C(=O)N[C@@H](Cc1c[nH]c2ccccc12)C(=O)N[C@H](C(=O)N[C@@H](CCCNC(=N)N)C(=O)N[C@@H](CCCNC(=N)N)C(N)=O)C(C)C)C(C)C)C(C)C)C(C)C [SEQ ID NO: 231] (Ac-VHVSVPQELWEWVRR-NH2) | < 10 µM |
| CC[C@H](C)[C@H](NC(C)=O)C(=O)N[C@@H](Cc1c[nH]cn1)C(=O)N[C@H](C(=O)N[C@H](C(=O)N[C@H](C(=O)N1CCC[C@H]1C(=O)N[C@@H](CC(C)C)C(=O)N[C@@H](CCC(=O)O)C(=O)N[C@H](C(=O)N[C@@H](Cc1ccccc1)C(=O)N[C@@H](CCC(=O)O)C(=O)N[C@@H](Cc1c[nH]c2ccccc12)C(=O)N[C@@H](CC(C)C)C(=O)N[C@@H](CCC(N)=O)C(=O)N[C@@H](CCCNC(=N)N)C(N)=O)[C@@H](C)CC)[C@@H](C)CC)[C@@H](C)O)C(C)C [SEQ ID NO: 248] (Ac-IHVTIPLEIFEWLQR-NH2) | < 10 µM |
| CC[C@H](C)[C@H](NC(C)=O)C(=O)N[C@@H](Cc1c[nH]cn1)C(=O)N[C@H](C(=O)N[C@H](C(=O)N[C@H](C(=O)N1CCC[C@H]1C(=O)NCC(=O)N[C@@H](CC(=O)O)C(=O)N[C@@H](CC(C)C)C(=O)N[C@@H](Cc1c[nH]c2ccccc12)C(=O)N[C@@H](CC(=O)O)C(=O)N[C@@H](Cc1c[nH]c2ccccc12)C(=O)N[C@H](C(=O)N[C@@H](CC(N)=O)C(=O)N[C@@H](CCCCN)C(N)=O)[C@@H](C)CC)[C@@H](C)CC)[C@@H](C)O)C(C)C [SEQ ID NO: 192] (Ac-IHVTIPGDLWDWINK-NH2) | < 10 µM |
| CC[C@H](C)[C@H](NC(C)=O)C(=O)N[C@@H](Cc1c[nH]cn1)C(=O)N[C@H](C(=O)N[C@H](C(=O)N[C@H](C(=O)N1CCC[C@H]1C(=O)N[C@@H](C)C(=O)N[C@@H](CC(=O)O)C(=O)N[C@@H](CC(C)C)C(=O)N[C@@H](Cc1c[nH]c2ccccc12)C(=O)N[C@@H](CC(=O)O)C(=O)N[C@@H](Cc1c[nH]c2ccccc12)C(=O)N[C@@H](CCC(=O)O)C(=O)N[C@@H](CC(N)=O)C(=O)N[C@@H](CCCCN)C(N)=O)[C@@H](C)CC)[C@@H](C)O)C(C)C [SEQ ID NO: 212] (Ac-IHVTIPADLWDWENK-NH2) | < 10 µM |
| CC[C@H](C)[C@H](NC(=O)[C@H](Cc1c[nH]c2ccccc12)NC(=O)[C@H](CC(=O)O)NC(=O)[C@H](Cc1c[nH]c2ccccc12)NC(=O)[C@H](CC(C)C)NC(=O)[C@H](CC(=O)O)NC(=O)[C@H](C)NC(=O)[C@@H]1CCCN1C(=O)[C@@H](NC(=O)[C@@H](NC(=O)[C@@H](NC(=O)[C@H](Cc1c[nH]cn1)NC(=O)[C@H](CC(C)C)NC(C)=O)C(C)C)[C@@H](C)O)[C@@H](C)CC)C(=O)N[C@@H](CC(N)=O)C(=O)N[C@@H](CCCCN)C(N)=O [SEQ ID NO: 160] (Ac-LHVTIPADLWDWINK-NH2) | < 10 µM |

Results, then the compound that gave them:

| IC50 | Compound |
| --- | --- |
| < 10 µM | CC[C@H](C)[C@H](NC(C)=O)C(=O)N[C@@H](Cc1c[nH]cn1)C(=O)N[C@H](C(=O)N[C@H](C(=O)N[C@H](C(=O)N1CCC[C@H]1C(=O)N[C@@H](CC(N)=O)C(=O)N[C@@H](CC(=O)O)C(=O)N[C@@H](CC(C)C)C(=O)N[C@@H](Cc1c[nH]c2ccccc12)C(=O)N[C@@H](CC(=O)O)C(=O)N[C@@H](Cc1c[nH]c2ccccc12)C(=O)N[C@H](C(=O)N[C@@H](CC(N)=O)C(=O)N[C@@H](CCCCN)C(N)=O)[C@@H](C)CC)[C@@H](C)CC)[C@@H](C)O)C(C)C [SEQ ID NO: 197] (Ac-IHVTIPNDLWDWINK-NH2) |
| < 0.5 µM | CC(=O)N[C@H](C(=O)N[C@@H](Cc1c[nH]cn1)C(=O)N[C@@H](Cc1ccccc1)C(=O)N[C@H](C(=O)N[C@@H](Cc1ccccc1)C(=O)N1CCC[C@H]1C(=O)N[C@@H](CCC(N)=O)C(=O)N[C@@H](CC(=O)O)C(=O)N[C@@H](CC(C)C)C(=O)N[C@@H](Cc1c[nH]c2ccccc12)C(=O)N[C@@H](CCC(=O)O)C(=O)N[C@@H](Cc1ccccc1)C(=O)N[C@H](C(=O)N[C@@H](CCCNC(=N)N)C(=O)N[C@@H](CCCNC(=N)N)C(N)=O)C(C)C)[C@@H](C)O)C(C)C [SEQ ID NO: 128] (Ac-VHFTFPQDLWEFVRR-NH2) |
| < 0.5 µM | CC(=O)N[C@H](C(=O)N[C@@H](Cc1c[nH]cn1)C(=O)N[C@@H](Cc1ccccc1)C(=O)N[C@@H](CCC(N)=O)C(=O)N[C@@H](Cc1ccccc1)C(=O)N1CCC[C@H]1C(=O)N[C@@H](C)C(=O)N[C@@H](CC(=O)O)C(=O)N[C@@H](CC(C)C)C(=O)N[C@@H](Cc1c[nH]c2ccccc12)C(=O)N[C@@H](CC(N)=O)C(=O)N[C@@H](Cc1c[nH]c2ccccc12)C(=O)N[C@H](C(=O)N[C@@H](CCCNC(=N)N)C(=O)N[C@@H](CCCNC(=N)N)C(N)=O)C(C)C)C(C)C [SEQ ID NO: 133] (Ac-VHFQFPADLWNWVRR-NH2) |
| < 0.5 µM | CC[C@H](C)[C@H](NC(=O)CNC(=O)[C@H](C)NC(=O)CNC(=O)[C@@H]1CCCN1C(=O)[C@@H](NC(=O)CNC(=O)[C@H](C)NC(=O)CNC(=O)[C@@H]1CCCN1C(=O)[C@@H](NC(C)=O)C(C)C)C(C)C)C(=O)N[C@@H](Cc1c[nH]cn1)C(=O)N[C@H](C(=O)N[C@H](C(=O)N[C@H](C(=O)N1CCC[C@H]1C(=O)N[C@@H](C)C(N)=O)[C@@H](C)CC)[C@@H](C)O)C(C)C [SEQ ID NO: 157] (Ac-VPGAGVPGAGIHVTIPA-NH2) |
